Drawing on the PolyMetriX glass transition set, this text covers glass transition temperature for 37 compounds.

Each structure is given as a SMILES string.

Consider `*C(=O)c1ccc2c(c1)C(=O)N(c1cccc(C(=O)N(C)c3ccc(N4C(=O)c5ccc(*)cc5C4=O)cc3)c1)C2=O` (repeat unit), for which the glass transition temperature was determined as 260.50 °C. On to `*C(=O)c1ccc2c(c1)C(=O)N(c1cccc(Cc3ccc(C(=O)c4cccc(N5C(=O)c6ccc(*)cc6C5=O)c4)cc3)c1)C2=O` (repeat unit), for which the glass transition temperature was found to be 265.50 °C.

In turn, `*CCCCCCCCCCCCN1C(=O)c2cccc3c(-c4ccc5c6c(cccc46)C(=O)N(CCCCCCCCCCCCN4C(=O)c6ccc7c8ccc9c%10c(ccc(c%11ccc(c6c7%11)C4=O)c%108)C(=O)N(*)C9=O)C5=O)ccc(c23)C1=O` (repeat unit) gave a glass transition temperature of 210.00 °C.

In turn, `*CCCCCCCCCCCCc1nc2ccc(-c3ccc4nc(*)oc4c3)cc2o1` (repeat unit) showed a glass transition temperature of 55.00 °C. With `*c1cc(CCCCCC)c(-c2ccc3c4ccc(-c5sc(-c6sc(*)c7nc(CC)c(CC)nc67)cc5CCCCCC)cc4n(CCCCCCCCCCCC)c3c2)s1` (repeat unit), the glass transition temperature was 89.00 °C. `*c1ccc(-c2ccc(-c3cc(-c4ccc(-c5ccc(Oc6ccccc6)cc5)cc4)c4cc(-c5ccc6nc(*)cc(-c7ccc(-c8ccc(Oc9ccccc9)cc8)cc7)c6c5)ccc4n3)cc2)cc1` (repeat unit) yielded a glass transition temperature of 374.00 °C. `*c1ccc(-c2ccc(-c3nc4ccc(-c5ccc6nc(*)c(-c7ccccc7)nc6c5)cc4nc3-c3ccccc3)cc2)cc1` (repeat unit): the glass transition temperature was found to be 404.00 °C. On to `*c1ccc(-c2cnc3ccc(S(=O)(=O)c4ccc5ncc(*)nc5c4)cc3n2)cc1` (repeat unit), for which the glass transition temperature came to 342.00 °C. `*c1ccc(-c2nc3ccc(-c4ccc5nc(*)c(-c6ccccc6)nc5c4)cc3nc2-c2ccccc2)cc1` (repeat unit): the glass transition temperature was 354.50 °C.

In turn, `*c1ccc(Oc2ccc(-c3nc4cc(-c5ccc6nc(*)c(-c7ccccc7)nc6c5)ccc4nc3-c3ccccc3)cc2)cc1` (repeat unit) had a glass transition temperature of 292.50 °C. `*c1ccc(Oc2ccc(-c3nc4cc(-c5ccc6nc(-c7ccccc7)c(*)nc6c5)ccc4nc3-c3ccccc3)cc2)cc1` (repeat unit): the glass transition temperature came out at 300.00 °C. In turn, `*c1ccc(Oc2ccc(-c3nc4ccc(-c5ccc6nc(*)c(-c7ccccc7)nc6c5)cc4nc3-c3ccccc3)cc2)cc1` (repeat unit) displayed a glass transition temperature of 306.00 °C.

`*c1ccc(Oc2ccc(Oc3ccc(Oc4ccc(-c5nc6ccc(-c7ccc8nc(*)c(-c9ccccc9)nc8c7)cc6nc5-c5ccccc5)cc4)cc3)cc2)cc1` (repeat unit) gave a glass transition temperature of 263.00 °C. The compound `*c1ccc2c(c1)C(=O)N(c1cccc(Oc3ccc(C(c4ccc(Oc5cccc(N6C(=O)c7ccc(C(*)(C(F)(F)F)C(F)(F)F)cc7C6=O)c5)cc4)(C(F)(F)F)C(F)(F)F)cc3)c1)C2=O` (repeat unit) gave a glass transition temperature of 224.00 °C. Take `*c1ccc2c(c1)C(=O)N(c1cccc(Oc3ccc(P(=O)(c4ccccc4)c4ccc(Oc5cccc(N6C(=O)c7ccc(C(*)(C(F)(F)F)C(F)(F)F)cc7C6=O)c5)cc4)cc3)c1)C2=O` (repeat unit): the glass transition temperature was determined as 243.00 °C. In turn, `*c1ccc2c(c1)C(=O)N(c1cccc(Oc3ccc(S(=O)(=O)c4ccc(Oc5cccc(N6C(=O)c7ccc(C(*)(C(F)(F)F)C(F)(F)F)cc7C6=O)c5)cc4)cc3)c1)C2=O` (repeat unit) returned a glass transition temperature of 209.50 °C.

`*c1ccc2c(c1)C(=O)N(c1cccc(Oc3cccc(N4C(=O)c5ccc(C(*)(C(F)(F)F)C(F)(F)F)cc5C4=O)c3)c1)C2=O` (repeat unit) gave a glass transition temperature of 244.00 °C. The compound `*c1ccc2c(c1)C(=O)N(c1cccc(Oc3cccc(N4C(=O)c5ccc(C(F)(F)C(F)(F)C(*)(F)F)cc5C4=O)c3)c1)C2=O` (repeat unit) gave a glass transition temperature of 312.00 °C.

As to `*c1ccc2c(c1)C(=O)N(c1cccc(P(=O)(c3ccc(C(F)(F)F)cc3)c3cccc(N4C(=O)c5ccc(C(*)(C(F)(F)F)C(F)(F)F)cc5C4=O)c3)c1)C2=O` (repeat unit), the glass transition temperature worked out at 260.00 °C. Take `*c1ccc2c(c1)C(=O)N(c1cccc(P(=O)(c3ccc(Oc4ccc(C56CC7CC(CC(C7)C5)C6)cc4)cc3)c3cccc(N4C(=O)c5ccc(C(*)(C(F)(F)F)C(F)(F)F)cc5C4=O)c3)c1)C2=O` (repeat unit): the glass transition temperature came to 298.00 °C.

Compound `*c1ccc2c(c1)C(=O)N(c1cccc(P(=O)(c3ccccc3)c3cccc(N4C(=O)c5ccc(C(*)(C(F)(F)F)C(F)(F)F)cc5C4=O)c3)c1)C2=O` (repeat unit) returned a glass transition temperature of 271.00 °C. The compound `*c1ccc2c(c1)C(CCCCCC)(CCCCCC)c1cc(-c3cc(OCc4ccccc4)c(*)cc3OCc3ccccc3)ccc1-2` (repeat unit) had a glass transition temperature of 73.00 °C. On to `*c1ccc2c(c1)C(CCCCCC)(CCCCCC)c1cc(-c3ccc4c(c3)c3cc(*)ccc3n4-c3ccccc3)ccc1-2` (repeat unit), for which the glass transition temperature amounted to 170.00 °C. The value for `*c1ccc2c(c1)Sc1cc(-c3ccc(-c4ccc(*)s4)s3)ccc1N2CCCCCCCCCC` (repeat unit) was 142.00 °C; that for `*c1ccc2c(c1)Sc1cc(-c3sc4cc(*)sc4c3CCCCC)ccc1N2CCCCCC` (repeat unit) was 126.00 °C. On to `*c1ccc2c(c1)Sc1cc(-c3sc4cc(*)sc4c3CCCCC)ccc1N2CCCCCCCCCC` (repeat unit), for which the glass transition temperature is 131.00 °C. Turning to `*c1ccc2c(c1)Sc1cc(-c3sc4cc(*)sc4c3CCCCC)ccc1N2CCCCCCCCCCCC` (repeat unit), the glass transition temperature was 136.00 °C.

Turning to `*c1ccc2cc(-c3nc4ccc(-c5ccc6nc(*)[nH]c6c5)cc4[nH]3)ccc2c1` (repeat unit), the glass transition temperature stood at 403.00 °C. Regarding `*c1ccc2cc3cc(-c4sc(-c5cc(CCCCCCCCCCCC)c(*)s5)cc4CCCCCCCCCCCC)ccc3cc2c1` (repeat unit), the glass transition temperature was found to be 158.00 °C. `*c1ccc2oc(-c3ccc(-c4nc5cc(C(*)(C(F)(F)F)C(F)(F)F)ccc5o4)cn3)nc2c1` (repeat unit) displayed a glass transition temperature of 352.00 °C.

On to `*c1ccc2oc(-c3ccc(C(c4ccc(-c5nc6cc(C(*)(c7ccccc7)C(F)(F)F)ccc6o5)cc4)(C(F)(F)F)C(F)(F)F)cc3)nc2c1` (repeat unit), for which the glass transition temperature came out at 334.00 °C. `*c1ccc2oc(-c3ccc(Oc4ccc(-c5nc6cc(C(*)(c7ccccc7)C(F)(F)F)ccc6o5)cc4)cc3)nc2c1` (repeat unit) registered a glass transition temperature of 299.00 °C. For `*c1ccc2oc(-c3cccc(-c4nc5cc(C(*)(C(F)(F)F)C(F)(F)F)ccc5o4)c3)nc2c1` (repeat unit), the glass transition temperature is 301.00 °C. For the compound `*c1ccc2oc3ccc(S(*)(=O)=O)cc3c2c1` (repeat unit), the glass transition temperature was determined as 360.00 °C. With `*c1cccc(C(=O)c2c(C)cc(C)c(N3C(=O)c4ccc(Oc5ccc6c(c5)C(=O)N(*)C6=O)cc4C3=O)c2C)c1` (repeat unit), the glass transition temperature came to 287.00 °C. In turn, `*c1cccc(Oc2cccc(Oc3cccc(N4C(=O)c5ccc(-c6cccc7c6C(=O)N(*)C7=O)cc5C4=O)c3)c2)c1` (repeat unit) had a glass transition temperature of 213.00 °C. The value for `*c1nc2cc(S(=O)(=O)c3ccc4oc(C5CCC(*)CC5)nc4c3)ccc2o1` (repeat unit) was 296.00 °C.
